Residues, ends and D or L forms follow the SMILES beside them. No end group written: not given here. *: point of attachment. Boc = CC(C)(C)OC(=O)*

Holding throughout (type): biochemical
Assay [1] deals with T1, Human Enterokinase (Homo sapiens, UniProt P98073). In words: Inhibition of human enterokinase, α-N-[3H]acetyl trypsinogen as substrate. As to conditions: substrate α-N-[3H]acetyltrypsinogen. The protocol:
(§1) Biological testing was carried out on the polyaspartyl argininal materials prepared as described above without further purification. […] Inhibition constants Ki for human and pig enterokinase were calculated using α-N-[^3 H] acetyl trypsinogen and Gly-(Asp)4 -Lys-2-Nap as substrates using linear regression analysis of l/v against [I] at three substrate concentrations. Inhibition of trypsin catalysed hydrolysis of both these substrates and Bz-Arg-OEt was expressed as the IC50, the concentration of inhibitor required to reduce trypsin activity by 50%. The results to activation peptides, four peptides of the invention, leupeptin and p-aminobenzamidine are set out in Tables 1 to 3 below.

A further assay deals with Pig Enterokinase (Sus scrofa, UniProt P98074). In words: Inhibition of pig enterokinase, α-N-[3H]acetyl trypsinogen as substrate. As to conditions: substrate α-N-[3H]acetyltrypsinogen. The protocol:
as §1

In assay [2] the target is T1, Human Enterokinase. In words: Inhibition of human enterokinase, Gly-(Asp)4-Lys-2-Nap as substrate. As to conditions: substrate Gly-(Asp)4-Lys-2-Nap; linear regression of 1/v against [I] at three substrate concentrations. As to the method:
as §1

Sequence of Pig Enterokinase (P98074 52-1034): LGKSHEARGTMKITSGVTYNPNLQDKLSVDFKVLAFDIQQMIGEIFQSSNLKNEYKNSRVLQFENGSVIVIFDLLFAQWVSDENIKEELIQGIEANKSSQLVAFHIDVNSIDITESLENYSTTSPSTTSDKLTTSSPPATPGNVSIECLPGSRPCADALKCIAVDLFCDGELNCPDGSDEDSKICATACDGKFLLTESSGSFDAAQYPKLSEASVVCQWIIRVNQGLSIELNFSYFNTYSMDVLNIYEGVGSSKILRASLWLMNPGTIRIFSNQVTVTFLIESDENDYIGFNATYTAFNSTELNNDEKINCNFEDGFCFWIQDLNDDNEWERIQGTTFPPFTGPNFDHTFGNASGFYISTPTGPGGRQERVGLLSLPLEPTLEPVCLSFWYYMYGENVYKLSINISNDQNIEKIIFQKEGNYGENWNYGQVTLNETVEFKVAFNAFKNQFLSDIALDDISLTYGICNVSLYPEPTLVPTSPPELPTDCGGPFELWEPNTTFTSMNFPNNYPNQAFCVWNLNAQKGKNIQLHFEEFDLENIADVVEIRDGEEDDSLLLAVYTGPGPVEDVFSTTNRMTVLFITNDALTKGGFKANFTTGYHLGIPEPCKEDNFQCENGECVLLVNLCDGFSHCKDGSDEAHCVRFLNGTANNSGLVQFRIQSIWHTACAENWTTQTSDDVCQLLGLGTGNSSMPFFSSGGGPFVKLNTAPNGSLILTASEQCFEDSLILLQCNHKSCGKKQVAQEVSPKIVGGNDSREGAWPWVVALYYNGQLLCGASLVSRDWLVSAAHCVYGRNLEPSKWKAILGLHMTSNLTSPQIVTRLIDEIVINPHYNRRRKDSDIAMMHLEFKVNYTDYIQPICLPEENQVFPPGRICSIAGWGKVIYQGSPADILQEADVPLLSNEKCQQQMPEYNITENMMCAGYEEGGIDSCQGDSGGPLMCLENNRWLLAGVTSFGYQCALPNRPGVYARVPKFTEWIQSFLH
T1 sequence (P98073 whole entry): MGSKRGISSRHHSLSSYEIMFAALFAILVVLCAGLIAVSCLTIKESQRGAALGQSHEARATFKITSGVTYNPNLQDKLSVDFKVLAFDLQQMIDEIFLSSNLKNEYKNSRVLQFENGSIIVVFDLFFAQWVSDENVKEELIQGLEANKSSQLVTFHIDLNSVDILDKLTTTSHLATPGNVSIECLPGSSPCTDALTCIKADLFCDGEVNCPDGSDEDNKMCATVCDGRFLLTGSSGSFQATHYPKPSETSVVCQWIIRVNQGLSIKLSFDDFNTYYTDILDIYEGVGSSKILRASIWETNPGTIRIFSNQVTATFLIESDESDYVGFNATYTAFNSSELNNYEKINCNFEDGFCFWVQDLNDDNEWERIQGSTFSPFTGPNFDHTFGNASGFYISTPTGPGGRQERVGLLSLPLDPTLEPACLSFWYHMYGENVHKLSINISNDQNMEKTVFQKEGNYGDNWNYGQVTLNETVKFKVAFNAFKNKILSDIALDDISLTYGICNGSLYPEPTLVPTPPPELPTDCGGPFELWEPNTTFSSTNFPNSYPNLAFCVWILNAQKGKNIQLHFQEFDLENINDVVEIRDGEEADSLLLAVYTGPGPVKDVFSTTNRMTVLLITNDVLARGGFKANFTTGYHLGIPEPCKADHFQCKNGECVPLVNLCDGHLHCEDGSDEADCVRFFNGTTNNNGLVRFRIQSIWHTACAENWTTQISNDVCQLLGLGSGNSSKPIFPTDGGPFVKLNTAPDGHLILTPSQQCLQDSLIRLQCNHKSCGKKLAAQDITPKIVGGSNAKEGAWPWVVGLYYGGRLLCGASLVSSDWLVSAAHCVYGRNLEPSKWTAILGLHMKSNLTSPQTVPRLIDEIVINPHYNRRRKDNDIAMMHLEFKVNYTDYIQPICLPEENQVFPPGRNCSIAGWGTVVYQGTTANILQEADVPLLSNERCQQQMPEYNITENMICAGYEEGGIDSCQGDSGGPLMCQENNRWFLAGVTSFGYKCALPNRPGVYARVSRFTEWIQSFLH

For the compound `N=C(N)c1ccc(N)cc1` [p-aminobenzamidine, reference compound], the Ki on Human Enterokinase [1] and at Pig Enterokinase was at least 50000 nM each time.
For the compound `CC(C)(C)OC(=O)N[C@@H](CC(=O)O)C(=O)N[C@@H](CC(=O)O)C(=O)N[C@H](C=O)CCCNC(=N)N` [Boc(Asp)2 Argal, Boc--(Asp)2 --Argininal] (Boc-Asp-Asp-Arg-aldehyde), the results for the Ki at Human Enterokinase [1], on Human Enterokinase [2] and on Pig Enterokinase were 10 ± 5 nM, 200 ± 50 nM and 50 ± 10 nM, respectively.
With “APFDDDDK [Ala--Pro--Phe--(Asp)4 Lys, reference compound]”, the Ki at Human Enterokinase [2] was determined as 750000 nM.
In the case of `CC(C)(C)OC(=O)N[C@@H](CC(=O)O)C(=O)N[C@@H](CC(=O)O)C(=O)N[C@@H](CC(=O)O)C(=O)N[C@@H](CC(=O)O)C(=O)N[C@H](C=O)CCCNC(=N)N` [Boc(Asp)4 Argal, Boc--(Asp)4 --Argininal] (Boc-DDDDR-aldehyde), the Ki at Human Enterokinase [1] stood at 10 ± 5 nM; on Human Enterokinase [2], 55 ± 5 nM; on Pig Enterokinase, 20 ± 10 nM.
For `CC(=O)N[C@@H](CC(C)C)C(=O)N[C@@H](CC(C)C)C(=O)N[C@H](C=O)CCCNC(=N)N` [Leupeptin, reference compound], the Ki at Human Enterokinase [2] is 1000 nM; on Pig Enterokinase, at least 1000 nM.
Compound DDDDK [(Asp)4 Lys, reference compound] registered a Ki at Human Enterokinase [2] of 100000 nM.
For the compound `CC(C)(C)OC(=O)N[C@@H](CC(=O)O)C(=O)N[C@@H](CC(=O)O)C(=O)N[C@@H](CC(=O)O)C(=O)N[C@H](C=O)CCCNC(=N)N` [Boc(Asp)3 Argal, Boc--(Asp)3 --Argininal] (Boc-DDDR-aldehyde), the Ki amounted to 20 ± 5 nM at Human Enterokinase [1], 100 nM on Human Enterokinase [2] and 35 ± 5 nM on Pig Enterokinase.

The Ki is a measure of affinity in units of concentration, obtained from inhibition or displacement. A high value points to a looser hold on the target.

Values taken from US4593018A, “Oligopeptide aldehydes useful as specific inhibitors of enterokinase” (National Research Development Corp., priority 1983, dated 1986).
